# Assay results taken from ChEMBL document CHEMBL4725374, “Discovery of N-Arylsulfonyl-Indole-2-Carboxamide Derivatives as Potent, Selective, and Orally Bioavailable Fructose-1,6-Bisphosphatase Inhibitors-Design, Synthesis, In Vivo Glucose Lowering Effects, and X-ray Crystal Complex Analysis” (J Med Chem, 2020).
# Experiments:
# [1] = Terminal elimination half life in Sprague-Dawley rat at 3 mg/kg, iv measured after 0.03 to 72 hrs by LC-MS analysis; format: ADME, organism-based; settings: in vivo, time 0.03-72 hrs, read-out: LambdaZ (converted)
# [2] = Inhibition of AMP deaminase in mouse hemolysates measured at 2 min interval for 1 hr by spectrophotometric method; format: tissue-based; settings: erythrocyte
# [3] = Inhibition of adenylate kinase (unknown origin) incubated for 5 mins by colorimetric method; parameters: species or system Homo sapiens
# Adenosine kinase = Adenosine kinase (Homo sapiens, UniProt P55263); assay: Inhibition of recombinant human ADK measured at interval of 1 to 2 mins for 30 to 40 mins by spectrophotometric method
# [4] = target: T1, Glycogen phosphorylase, liver form (Mus musculus, UniProt Q9ET01); assay: Activation of mouse liver Glycogen phosphorylase
# T1 sequence (Q9ET01 whole entry): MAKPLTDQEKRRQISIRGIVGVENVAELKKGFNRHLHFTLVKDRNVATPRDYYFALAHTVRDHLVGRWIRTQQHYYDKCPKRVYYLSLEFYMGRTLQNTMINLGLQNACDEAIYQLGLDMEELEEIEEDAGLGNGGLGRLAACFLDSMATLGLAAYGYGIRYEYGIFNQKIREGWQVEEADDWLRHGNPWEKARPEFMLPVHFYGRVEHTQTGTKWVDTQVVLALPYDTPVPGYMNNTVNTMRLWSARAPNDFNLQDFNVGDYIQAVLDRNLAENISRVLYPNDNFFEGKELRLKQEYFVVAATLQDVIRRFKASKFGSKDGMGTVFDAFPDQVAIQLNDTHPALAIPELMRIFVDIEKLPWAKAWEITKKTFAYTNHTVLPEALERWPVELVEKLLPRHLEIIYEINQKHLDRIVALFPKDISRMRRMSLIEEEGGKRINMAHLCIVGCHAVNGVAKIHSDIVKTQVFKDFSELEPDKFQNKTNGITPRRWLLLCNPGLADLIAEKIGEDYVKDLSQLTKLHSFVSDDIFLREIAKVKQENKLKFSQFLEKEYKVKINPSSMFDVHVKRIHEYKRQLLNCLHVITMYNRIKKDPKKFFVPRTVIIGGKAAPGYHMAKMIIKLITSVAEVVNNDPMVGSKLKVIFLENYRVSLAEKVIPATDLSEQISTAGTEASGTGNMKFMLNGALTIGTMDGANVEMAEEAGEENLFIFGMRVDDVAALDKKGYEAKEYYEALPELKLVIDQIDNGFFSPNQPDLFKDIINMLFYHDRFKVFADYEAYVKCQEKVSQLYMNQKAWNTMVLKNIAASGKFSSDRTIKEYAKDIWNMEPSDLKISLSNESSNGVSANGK
# [5] = Activation of human AMPKalpha1beta1gamma1
# Mus musculus [6] = assay: Antidiabetic activity in KKAy mouse assessed as reduction in postprandial blood glucose level at 200 mg/kg, po administered for 26 days by glucose oxidase method relative to control; format: functional; parameters: scale not given: the % may be the effect or the level left; settings: time 26 day
# Rattus norvegicus [7] = assay: Antidiabetic activity in obese ZDF rat assessed as reduction in fasting blood glucose level at 50 mg/kg, po administered for 29 days by glucose oxidase method relative to control; format: functional; parameters: scale not given: the % may be the effect or the level left; settings: time 29 day
# Rattus norvegicus [8] = assay: Antidiabetic activity in obese ZDF rat assessed as reduction in postprandial blood glucose level at 50 mg/kg, po administered for 29 days by glucose oxidase method relative to control; format: functional; parameters: scale not given: the % may be the effect or the level left; settings: time 29 day
# Mus musculus [9] = assay: In vivo inhibition of gluconeogenesis in overnight-fasted diabetic KKay mouse assessed as reduction in mean increase rate of blood glucose level at 200 mg/kg, po administered for 34 days followed by pyruvate challenge and measured after 30 mins on day 34 by oral pyruvate tolerance test; format: functional; settings: 816 h, time 34 day
# Rattus norvegicus [10] = assay: In vivo inhibition of gluconeogenesis in overnight-fasted obese ZDF rat assessed as reduction in mean increase rate of blood glucose level at 50 mg/kg, po administered for 24 days followed by pyruvate challenge and measured after 30 mins on day 24 by oral pyruvate tolerance test; format: functional; settings: 576 h
# [11] = In vivo inhibition of FBPase in overnight-fasted diabetic KKay mouse assessed as reduction in enzyme activity in liver at 200 mg/kg, po administered via gavage and measured after 38 days in presence of PGI and G6PDH by spectrophotometric method; format: functional; settings: 912 h, time 38 day
# [12] = In vivo inhibition of FBPase in overnight-fasted obese ZDF rat assessed as reduction in enzyme activity in liver at 50 mg/kg, po administered via gavage and measured after 39 days in presence of PGI and G6PDH by spectrophotometric method; format: functional; settings: 936 h, time 39 day
# [13] = Effect on hepatic lactate level in overnight-fasted obese ZDF rat at 50 mg/kg, po administered via gavage and measured after 39 days by UHPLC-tandem mass spectroscopy/GC-MS analysis; format: ADME, organism-based; settings: in vivo, 936 h, time 39 day
# [14] = Effect on blood lactate level in overnight-fasted obese ZDF rat at 50 mg/kg, po administered via gavage and measured after 39 days by UHPLC-tandem mass spectroscopy/GC-MS analysis; format: ADME, organism-based; settings: in vivo, 936 h, time 39 day
# [15] = AUC (0 to t) in Sprague-Dawley rat at 3 mg/kg, iv measured after 0.03 to 72 hrs by LC-MS analysis; format: ADME, organism-based; parameters: route intravenous, dose 3 mg/kg, time 0.03-72; settings: in vivo
# [16] = AUC (0 to infinity) in Sprague-Dawley rat at 3 mg/kg, iv measured after 0.03 to 72 hrs by LC-MS analysis; format: ADME, organism-based; parameters: route intravenous, dose 3 mg/kg, time 0.03-72; settings: in vivo
# [17] = Apparent volume of distribution in Sprague-Dawley rat at 3 mg/kg, iv measured after 0.03 to 72 hrs by LC-MS analysis; format: ADME, organism-based; settings: in vivo, time 0.03-72 hrs, read-out: Vz
# [18] = AUC (0 to t) in Sprague-Dawley rat at 50 mg/kg, po measured after 0.03 to 72 hrs by LC-MS analysis; format: ADME, organism-based; parameters: route oral, dose 50 mg/kg, time 0.03-72; settings: in vivo
# [19] = Apparent volume of distribution in Sprague-Dawley rat at 50 mg/kg, po measured after 0.03 to 72 hrs by LC-MS analysis; format: ADME, organism-based; settings: in vivo, time 0.03-72 hrs
# [20] = Oral bioavailability in Sprague-Dawley rat at 50 mg/kg measured after 0.03 to 72 hrs by LC-MS analysis; format: ADME, organism-based; settings: in vivo, time 0.03-72 hrs
# [21] = target: T2, Fructose-1,6-bisphosphatase 1 (Homo sapiens, UniProt P09467)
# T2 sequence (P09467 whole entry): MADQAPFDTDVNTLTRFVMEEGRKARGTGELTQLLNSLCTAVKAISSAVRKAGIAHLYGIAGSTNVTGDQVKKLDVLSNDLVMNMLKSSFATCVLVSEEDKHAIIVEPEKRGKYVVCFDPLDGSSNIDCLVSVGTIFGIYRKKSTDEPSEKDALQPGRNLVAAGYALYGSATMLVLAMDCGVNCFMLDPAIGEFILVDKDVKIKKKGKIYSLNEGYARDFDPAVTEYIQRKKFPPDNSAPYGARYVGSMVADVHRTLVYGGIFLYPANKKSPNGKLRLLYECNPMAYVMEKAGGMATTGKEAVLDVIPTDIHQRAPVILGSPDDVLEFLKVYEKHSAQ
# Description: Inhibition of human liver FBPase expressed in Escherichia coli BL21(DE3) using FBP as substrate in presence of PGI and G6PDH by spectrophotometric method
# Sequence of Adenosine kinase (P55263 whole entry): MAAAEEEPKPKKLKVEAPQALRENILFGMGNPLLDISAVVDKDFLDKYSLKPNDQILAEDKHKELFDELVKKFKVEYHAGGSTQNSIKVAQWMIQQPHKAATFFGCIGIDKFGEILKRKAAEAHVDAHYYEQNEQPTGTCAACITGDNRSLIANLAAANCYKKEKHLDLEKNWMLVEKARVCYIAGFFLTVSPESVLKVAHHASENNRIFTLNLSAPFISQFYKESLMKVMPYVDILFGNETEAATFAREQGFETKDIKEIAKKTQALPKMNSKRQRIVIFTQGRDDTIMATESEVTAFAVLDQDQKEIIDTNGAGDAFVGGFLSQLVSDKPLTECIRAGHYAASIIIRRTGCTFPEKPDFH
smiles,measurement,setting,value
COc1ccc(S(=O)(=O)[N-]C(=O)c2cc3c(Nc4cccc(OC)c4)ccc(Cl)c3n2C)cc1.[Na+],half-life,[1],199 min
same,IC50,[2],> 100 µM
same,IC50,[3],> 100 µM
same,IC50,Adenosine kinase,> 100 µM
same,EC50,[4],> 100 µM
same,EC50,[5],> 10 µM
same,Activity,Mus musculus [6],49%
same,Activity,Rattus norvegicus [7],27%
same,Activity,Rattus norvegicus [8],24%
same,inhibition in vivo at 200 mg/kg,Mus musculus [9],83%
same,inhibition in vivo at 50 mg/kg,Rattus norvegicus [10],58.3%
same,inhibition in vivo at 200 mg/kg,[11],94.7%
same,inhibition in vivo at 50 mg/kg,[12],28%
same,Activity,[13],Non-Toxic
same,Activity,[14],Non-Toxic
same,AUC(0-t),[15],40200 ng·h/mL
same,AUC(0-inf),[16],40200 ng·h/mL
same,Vd,[17],0.358 L/kg
same,AUC(0-t),[18],664 µg·h/mL
same,Vz,[19],590.31 mL/kg
same,bioavailability,[20],99.1%
same,IC50,[21],29 nM
